Experimental data reported in patent publication US12135326B2 (priority 2019, dated 2024).
Several values for one entry are separate records, joined by “and”; a condition that tells them apart may be missing. Equal values may be shown once.

Key:
WT α-HL nanopore [1] = target: T1, WT α-HL nanopore (Staphylococcus aureus, UniProt P09616); type: binding
WT α-HL nanopore [2] = target: T1, WT α-HL nanopore; type: binding; remark: listed apart in the source

T1 sequence (P09616 27-319 limits assumed): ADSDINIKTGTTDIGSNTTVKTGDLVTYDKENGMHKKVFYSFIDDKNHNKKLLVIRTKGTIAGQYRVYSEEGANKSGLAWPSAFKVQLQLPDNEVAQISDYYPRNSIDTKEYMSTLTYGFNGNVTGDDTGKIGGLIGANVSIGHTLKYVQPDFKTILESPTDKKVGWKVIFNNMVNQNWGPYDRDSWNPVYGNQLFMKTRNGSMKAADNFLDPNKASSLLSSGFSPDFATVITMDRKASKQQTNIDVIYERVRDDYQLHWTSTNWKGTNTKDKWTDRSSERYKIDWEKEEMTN

Substance | mean value of % F (blockade level % Fb, center value±FWHM) (WT α-HL nanopore [1]) | sensing / translocation through α-HL nanopore by DOP (in words) (WT α-HL nanopore [1]) | Ip (mean blockage depth) (WT α-HL nanopore [2]) | τoff (WT α-HL nanopore [2]) [s] | 1/τoff (WT α-HL nanopore [1]) | mean Fp (mean blockage depth) (WT α-HL nanopore [1]) | mean τoff (dwell time constant) (WT α-HL nanopore [1]) [s]
5′-GATAGTGAGCCAAATTTAAA-3′ [oligomeric ssDNA] | 0.289±0.175 | able to pass through the α-HL nanopore |  |  |  |  | 
Trimethyl-β-cyclodextrin [TriM-β-CD] |  |  | 0.065±0.002 | 0.386 ± 0.392 | 2.515 ± 0.440 s⁻¹ and 2.437 ± 0.449 s⁻¹ and 2.953 ± 0.616 s⁻¹ and 3.640 ± 0.330 s⁻¹ | 0.078±0.010 | 0.347 ± 0.067
